What was measured:
Assay type in all cases: toxicity, cell-based, Cricetulus griseus, CHO
[1] = target: Voltage-gated inwardly rectifying potassium channel KCNH2 (Homo sapiens, UniProt Q12809); assay: (§1) Compounds were solubilised to 10 mM in DMSO and diluted in HBPS to […]. 6-Point concentration-response curves were generated using serial dilutions from the top test concentration. Electrophysiological recordings are made from a Chinese Hamster Ovary cell line stably expressing the full-length ion channel. Single cell ionic currents are measured in whole-cell configuration at room temperature. The internal solution for hERG is buffered to pH 7.3, and the external solution is buffered to pH 7.4. The test pulse was applied according to voltage protocol. Compounds were incubated for 2 min to allow stabilization of the parameters. Concentration-response curves were generated by cumulative addition of compound with concentrations low to high. In all cases, steady-state inhibition was achieved before the next concentration of compound was added. IC50 values or % of inhibition at top test concentration is obtained. The assay has been performed by Concept Life Sciences Ltd.
Chain of Voltage-gated inwardly rectifying potassium channel KCNH2 (Q12809 whole entry): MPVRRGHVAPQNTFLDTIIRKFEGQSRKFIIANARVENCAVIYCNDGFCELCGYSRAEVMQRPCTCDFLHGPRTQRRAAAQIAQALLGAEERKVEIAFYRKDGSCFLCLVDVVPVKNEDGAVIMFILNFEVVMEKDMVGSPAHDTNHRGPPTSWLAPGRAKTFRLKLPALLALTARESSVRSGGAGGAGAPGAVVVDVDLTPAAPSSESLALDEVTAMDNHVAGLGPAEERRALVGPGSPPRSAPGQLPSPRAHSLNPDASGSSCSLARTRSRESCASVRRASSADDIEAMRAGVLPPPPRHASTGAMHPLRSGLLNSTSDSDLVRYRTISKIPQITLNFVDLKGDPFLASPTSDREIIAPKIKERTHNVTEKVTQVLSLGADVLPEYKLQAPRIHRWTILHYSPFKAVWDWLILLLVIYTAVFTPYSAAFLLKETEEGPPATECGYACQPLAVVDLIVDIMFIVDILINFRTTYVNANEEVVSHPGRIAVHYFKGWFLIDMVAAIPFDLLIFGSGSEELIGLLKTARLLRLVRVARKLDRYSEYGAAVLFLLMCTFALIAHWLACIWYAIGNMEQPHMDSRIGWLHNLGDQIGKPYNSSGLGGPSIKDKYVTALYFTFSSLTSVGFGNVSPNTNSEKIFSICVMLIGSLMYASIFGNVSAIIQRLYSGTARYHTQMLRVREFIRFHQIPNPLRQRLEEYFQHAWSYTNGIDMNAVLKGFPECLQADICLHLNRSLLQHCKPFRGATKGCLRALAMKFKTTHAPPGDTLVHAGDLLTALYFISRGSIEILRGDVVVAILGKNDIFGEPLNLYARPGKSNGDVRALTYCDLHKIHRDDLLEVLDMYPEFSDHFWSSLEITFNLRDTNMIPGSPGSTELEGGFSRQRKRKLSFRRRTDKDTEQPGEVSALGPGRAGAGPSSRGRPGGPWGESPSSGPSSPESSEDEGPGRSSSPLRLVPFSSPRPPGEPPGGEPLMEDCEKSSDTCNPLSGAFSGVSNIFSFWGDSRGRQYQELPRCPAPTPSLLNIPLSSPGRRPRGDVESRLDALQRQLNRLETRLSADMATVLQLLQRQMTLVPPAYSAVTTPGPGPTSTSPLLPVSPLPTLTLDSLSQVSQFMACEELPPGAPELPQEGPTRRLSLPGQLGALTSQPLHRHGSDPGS

[2] = target: NaV1.5 (sodium channel protein type 5 subunit alpha) (Homo sapiens, UniProt Q14524); assay: (§2) Compounds were solubilised to 10 mM in DMSO and diluted in HBPS to 30 mM. 6-Point concentration-response curves were generated using serial dilutions from the top test concentration. Electrophysiological recordings were made from a Chinese Hamster Ovary cell line stably expressing the full-length ion channel. Single cell ionic currents were measured in whole-cell configuration at room temperature. The internal solution for hNaV1.5 is buffered to pH 7.3, and the external solution is buffered to pH 7.4. The test pulse was applied according to voltage protocol. Compounds were incubated for 2 min to allow stabilization of the parameters. Concentration-response curves were generated by cumulative addition of compound with concentrations low to high. In all cases, steady-state inhibition was achieved before the next concentration of compound was added. To investigate any use-dependence, an 8-pulse voltage protocol is applied at a frequency of 3 Hz. Inhibition is compared at pulse 1 and pulse 8. Any difference in the potency of a compound at P8 versus P1 would be typical of use-dependent block. IC50 values or % inhibition at the top test concentration is obtained. The assay has been performed by Concept Life Sciences Ltd.; conditions: chinese hamster, CHO cells stably expressing full-length hNaV1.5, pH 7.3; top test concentration 30 uM
Chain of NaV1.5 (sodium channel protein type 5 subunit alpha) (Q14524 whole entry): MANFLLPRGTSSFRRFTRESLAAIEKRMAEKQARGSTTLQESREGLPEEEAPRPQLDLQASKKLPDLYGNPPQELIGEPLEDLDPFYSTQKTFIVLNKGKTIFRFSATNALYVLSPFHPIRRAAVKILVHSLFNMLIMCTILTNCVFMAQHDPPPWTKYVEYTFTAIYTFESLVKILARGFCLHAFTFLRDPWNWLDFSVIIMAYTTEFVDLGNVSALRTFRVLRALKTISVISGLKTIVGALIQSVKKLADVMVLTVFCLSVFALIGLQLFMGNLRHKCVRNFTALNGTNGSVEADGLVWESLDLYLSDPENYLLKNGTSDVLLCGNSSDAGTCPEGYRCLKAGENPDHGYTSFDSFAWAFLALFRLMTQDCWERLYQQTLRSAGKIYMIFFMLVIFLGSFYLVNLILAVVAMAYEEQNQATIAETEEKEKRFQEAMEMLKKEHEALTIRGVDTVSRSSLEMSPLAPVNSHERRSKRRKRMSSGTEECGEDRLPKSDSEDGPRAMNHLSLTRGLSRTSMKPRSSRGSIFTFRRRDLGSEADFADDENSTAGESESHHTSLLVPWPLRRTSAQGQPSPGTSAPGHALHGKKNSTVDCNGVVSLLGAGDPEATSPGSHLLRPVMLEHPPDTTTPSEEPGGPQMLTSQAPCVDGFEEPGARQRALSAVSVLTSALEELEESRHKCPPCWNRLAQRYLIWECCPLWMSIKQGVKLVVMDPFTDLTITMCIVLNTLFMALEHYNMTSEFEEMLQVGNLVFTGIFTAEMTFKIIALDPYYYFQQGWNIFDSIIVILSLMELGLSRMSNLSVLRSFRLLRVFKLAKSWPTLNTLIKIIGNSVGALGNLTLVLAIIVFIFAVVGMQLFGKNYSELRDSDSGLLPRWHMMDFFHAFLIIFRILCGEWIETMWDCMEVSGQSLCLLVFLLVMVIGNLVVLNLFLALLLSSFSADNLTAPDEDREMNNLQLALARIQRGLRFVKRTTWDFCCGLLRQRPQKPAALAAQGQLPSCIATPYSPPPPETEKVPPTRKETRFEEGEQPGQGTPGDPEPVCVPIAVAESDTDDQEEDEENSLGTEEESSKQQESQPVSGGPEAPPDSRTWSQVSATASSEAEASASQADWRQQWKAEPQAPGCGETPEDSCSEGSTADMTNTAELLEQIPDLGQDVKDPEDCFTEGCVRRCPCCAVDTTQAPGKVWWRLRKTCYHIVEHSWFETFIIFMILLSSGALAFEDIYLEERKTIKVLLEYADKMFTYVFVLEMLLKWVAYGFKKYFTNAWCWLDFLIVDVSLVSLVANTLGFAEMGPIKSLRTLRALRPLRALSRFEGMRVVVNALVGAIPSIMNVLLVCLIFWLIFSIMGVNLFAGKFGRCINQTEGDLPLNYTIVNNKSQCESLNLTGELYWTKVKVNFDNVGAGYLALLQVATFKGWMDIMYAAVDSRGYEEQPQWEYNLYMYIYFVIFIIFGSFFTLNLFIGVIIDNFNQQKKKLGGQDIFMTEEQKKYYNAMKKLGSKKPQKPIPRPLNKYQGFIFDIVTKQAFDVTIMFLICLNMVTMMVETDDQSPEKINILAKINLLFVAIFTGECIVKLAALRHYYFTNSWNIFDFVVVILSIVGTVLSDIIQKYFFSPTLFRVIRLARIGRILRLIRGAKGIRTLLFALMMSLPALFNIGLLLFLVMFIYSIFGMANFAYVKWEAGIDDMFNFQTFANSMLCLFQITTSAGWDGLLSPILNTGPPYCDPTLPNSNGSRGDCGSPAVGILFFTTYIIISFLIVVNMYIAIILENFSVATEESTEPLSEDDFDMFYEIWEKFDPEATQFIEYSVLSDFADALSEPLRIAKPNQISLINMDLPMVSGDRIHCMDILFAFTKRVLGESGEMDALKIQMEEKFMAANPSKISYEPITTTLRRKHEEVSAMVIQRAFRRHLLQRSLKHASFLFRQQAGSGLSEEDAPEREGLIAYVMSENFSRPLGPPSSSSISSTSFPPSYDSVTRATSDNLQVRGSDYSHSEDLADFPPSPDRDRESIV

[3] = target: Sodium channel protein type 5 subunit alpha (Homo sapiens, UniProt Q14524); assay: as §2; conditions: for Inhibition: chinese hamster, cho, pH 7.3, 2 min, 2 min, top test concentration 30 uM
hERG (KCNH2) = hERG (KCNH2) (Homo sapiens, UniProt Q12809); assay: as §1; conditions: chinese hamster, CHO cells stably expressing full-length hERG, pH 7.3; top test concentration 30 uM
Chain of hERG (KCNH2) (Q12809 whole entry): as the sequence (Q12809 whole entry) above

| Structure (SMILES) | IC50 [1] | inhibition at 2 min [2] | IC50 [3] | Inhibition [3] | inhibition at 2 min (hERG (KCNH2)) | Inhibition ([1]; chinese hamster, cho, pH 7.3, 2 min, 2 min, top test concentration 30 uM) |
| --- | --- | --- | --- | --- | --- | --- |
| CC(C)[C@H](Nc1ncnc2[nH]c(-c3cnn(C)c3C#N)cc12)c1ccc2c(n1)OCCO2 | 11 µM | 33% | > 30 µM | 35% | – | – |
| CC(C)[C@H](Nc1ncnc2[nH]ccc12)c1ccc2c(c1)S(=O)(=O)CCC2 | > 30 µM | 19% | > 30 µM | 29% | 39% | – |
| CNC(=O)Cn1cc(-c2cc3c(N[C@@H](c4ccc5c(c4)S(=O)(=O)CCC5)C(C)C)ncnc3[nH]2)cn1 | > 30 µM | 15% | > 30 µM | 26% | 23% | – |
| COc1ccc([C@H](Cc2nnn[nH]2)NC(=O)c2ncnc3[nH]ccc23)cc1 | > 30 µM | 9% | > 30 µM | 8% | 27% | – |
| Cn1ncc(-c2cc3c(N[C@@H](c4ccc5c(n4)OCCO5)C(C)(C)C)ncnc3[nH]2)c1C#N | 19.5 µM | 17% | > 30 µM | 21% | – | – |
| CC(C)[C@@H](Nc1ncnc2[nH]c(-c3cnn(C)c3C#N)cc12)c1ccc2c(n1)OCCO2 | 10.1 µM | 27% | > 30 µM | 25% | – | – |
| CNCc1cc(-c2cc3c(N[C@@H](c4ccc5c(c4)S(=O)(=O)CCC5)C(C)C)ncnc3[nH]2)co1 | > 30 µM | 10% | > 30 µM | 16% | 26% | – |
| CC(C)[C@@H](Nc1ncnc2[nH]c(C(=O)N[C@@H]3CCN(C)C3)cc12)c1ccc2c(c1)S(=O)(=O)CCC2 | > 30 µM | 11% | > 30 µM | – | – | 18% |
| C[C@H](C(=O)O)[C@@H](NC(=O)c1ncnc2[nH]ccc12)c1ccc(Br)cc1 | > 30 µM | 18% | > 30 µM | 16% | 28% | – |

— ChEMBL document CHEMBL5441442, “ASAP - In vitro cardiotoxicity” (2024)
